Measurements as given in the NIST ThermoML archive (doi:10.1016/j.jct.2018.08.005).

Assay: xn = mol fraction of the nth substance listed
Conditions: Liquid, Vibrating tube method

CCOC(F)(C(F)(F)C(F)(F)C(F)(F)F)C(F)(C(F)(F)F)C(F)(F)F (stereo not given) [2-trifluoromethyl-3-ethoxydodecafluorohexane] + CC(C)OC(C)C
mass density [kg/m3]
Conditions	x1 = 0.25	x1 = 0.375	x1 = 0.5	x1 = 0.625	x1 = 0.75
363.15 K, 70000 kPa	1074.1	1203	1317.5	1418.6	1507
363.15 K, 80000 kPa	1085.2	1215.5	1330.8	1432.6	1521.5
363.15 K, 90000 kPa	1095.5	1227	1343.1	1445.6	1534.9
363.15 K, 100000 kPa	1105.1	1237.5	1354.5	1457.8	1547.4
363.15 K, 110000 kPa	1114.2	1247.5	1365.3	1469.1	1559.3
363.15 K, 120000 kPa	1122.7	1257.1	1375.4	1479.8	1570.4
363.15 K, 130000 kPa	1130.7	1265.9	1385	1490	1580.9
363.15 K, 140000 kPa	1138.4	1274.6	1394.2	1499.7	1591
373.15 K, 10000 kPa	957.5	1074	1179.6	1272.3	1355.8
373.15 K, 20000 kPa	983.8	1103.6	1210.9	1305.3	1389.8
373.15 K, 30000 kPa	1005	1127.2	1236	1331.8	1417.3
373.15 K, 40000 kPa	1022.8	1147.1	1257.2	1354.2	1440.5
373.15 K, 50000 kPa	1038.4	1164.3	1275.8	1373.8	1460.8
373.15 K, 60000 kPa	1052.3	1179.7	1292.2	1391.2	1478.9
373.15 K, 70000 kPa	1064.8	1193.7	1307.2	1407	1495.3
373.15 K, 80000 kPa	1076.3	1206.4	1320.8	1421.5	1510.3
373.15 K, 90000 kPa	1086.9	1218.3	1333.5	1435	1524.3
373.15 K, 100000 kPa	1096.9	1229.2	1345.3	1447.4	1537.2
373.15 K, 110000 kPa	1106.1	1239.6	1356.2	1459.1	1549.4
373.15 K, 120000 kPa	1114.8	1249.3	1366.6	1470.1	1560.8
373.15 K, 130000 kPa	1123.1	1258.3	1376.4	1480.5	1571.6
373.15 K, 140000 kPa	1130.8	1267	1385.7	1490.4	1581.8
383.15 K, 10000 kPa	942.8	1058	1162.6	1254.2	1336.7
383.15 K, 20000 kPa	971.3	1089.6	1196.3	1289.7	1373.1
383.15 K, 30000 kPa	993.8	1114.7	1223	1317.8	1402
383.15 K, 40000 kPa	1012.6	1135.6	1245.4	1341.5	1426.5
383.15 K, 50000 kPa	1028.9	1153.6	1264.7	1361.9	1447.6
383.15 K, 60000 kPa	1043.2	1169.5	1281.8	1379.9	1466.4
383.15 K, 70000 kPa	1056.2	1184	1297.2	1396.3	1483.3
383.15 K, 80000 kPa	1068.1	1197.2	1311.3	1411.4	1498.8
383.15 K, 90000 kPa	1079	1209.3	1324.3	1425	1513.1
383.15 K, 100000 kPa	1089.2	1220.6	1336.3	1437.8	1526.4
383.15 K, 110000 kPa	1098.7	1231.2	1347.6	1449.8	1538.8
383.15 K, 120000 kPa	1107.7	1241.3	1358.3	1461.2	1550.7
383.15 K, 130000 kPa	1116.1	1250.6	1368.1	1471.8	1561.7
383.15 K, 140000 kPa	1124.2	1259.6	1377.9	1481.9	1572.3
393.15 K, 10000 kPa	927.9	1041.6	1145.1	1235.9	1317.8
393.15 K, 20000 kPa	958.4	1075.7	1181.2	1273.8	1356.7
393.15 K, 30000 kPa	982.1	1102.2	1209.4	1303.4	1387.3
393.15 K, 40000 kPa	1001.8	1124	1232.7	1328	1412.8
393.15 K, 50000 kPa	1018.7	1142.7	1252.8	1349.1	1434.8
393.15 K, 60000 kPa	1033.7	1159.3	1270.5	1368	1454.2
393.15 K, 70000 kPa	1047.2	1174.3	1286.5	1385.1	1471.7
393.15 K, 80000 kPa	1059.3	1187.7	1300.8	1400.3	1487.5
393.15 K, 90000 kPa	1070.8	1200.4	1314.4	1414.7	1502.4
393.15 K, 100000 kPa	1081.3	1211.9	1326.8	1428	1516
393.15 K, 110000 kPa	1091	1222.8	1338.4	1440.1	1528.7
393.15 K, 120000 kPa	1100.3	1233	1349.4	1451.6	1540.7
393.15 K, 130000 kPa	1108.9	1242.6	1359.7	1462.5	1552.1
393.15 K, 140000 kPa	1117	1251.6	1369.3	1472.9	1562.7
